Laboratory results: patent US9434684B2, “Oxime-substituted amide compound and pest control agent” (Nissan Chemical Industries, Ltd., priority 2012, dated 2016)

Key:
Botrytis cinerea = test: Preventive effect against cucumber gray mold (mycelium inoculation); type: in vivo; settings: 48 h, test solution A 500 ppm, 2 days
Procedure: Compounds of the present invention were dissolved in a solvent for emulsion (a mixture of Sorpol (registered trademark) 3005XL (manufactured by Toho Chemical Industry Co., Ltd.): N-methylpyrrolidone:Solvesso (registered trademark) 200 (manufactured by ExxonMobil Chemical) in a ratio of 1:5:2) to prepare 20% emulsifiable concentrates. Then, distilled water was added to dilute the emulsifiable concentrates to the predetermined concentration (500 ppm), and the obtained solutions were used in the following Test Examples 1 to 7. Cucumber (cultivar: Sagami Hanjiro) was planted in 90 cm^3 plastic pots, and in the seed leaf stage, 5 ml per pot of test solutions A of the compounds of the present invention were applied. On the next day, the pots were put in a plastic container, and agar blocks (diameter: 5 mm) containing Botrytis cinerea preliminarily cultivated in a PDA medium were inoculated to the seed leaves of the cucumber treated with the solutions. After the inoculation, the plastic container was covered with a plastic sheet and humidified, and placed at 20° C. for 2 days, whereupon the proportion of the formed lesion in the inoculated leaves was measured to calculate the control value in accordance with the same formula as in Test Example 1. Here, the test was carried out in duplicate.

[1] = system: Phaeosphaeria nodorum (synonym: Septoria nodorum); test: Preventive effect against wheat glume blotch; type: in vivo; settings: Parastagonospora nodorum, 192 h, test solution A 500 ppm, 2 + 6 days
Procedure: (§1) Compounds of the present invention were dissolved in a solvent for emulsion (a mixture of Sorpol (registered trademark) 3005XL (manufactured by Toho Chemical Industry Co., Ltd.): N-methylpyrrolidone:Solvesso (registered trademark) 200 (manufactured by ExxonMobil Chemical) in a ratio of 1:5:2) to prepare 20% emulsifiable concentrates. Then, distilled water was added to dilute the emulsifiable concentrates to the predetermined concentration (500 ppm), and the obtained solutions were used in the following Test Examples 1 to 7. To wheat (cultivar: Haruyutaka) in 1.3-leaf stage planted in 90 cm^3 plastic pots, 5 ml per pot of test solutions A of the compounds of the present invention were applied. On the next day, a suspension of conidium of Phaeosphaeria nodorum synonym: Septoria nodorum) was spray-inoculated to the wheat, and the pots were placed in an inoculation chamber at 20° C. under a humidity of 100% for 2 days. Then, the pots were placed in an air-conditioned greenhouse (20° C.) for 6 days. The proportion of the formed lesion in the inoculated leaves was measured to calculate the control value in accordance with the same formula as in Test Example 1. Here, the test was carried out in duplicate.

Puccinia recondita = test: Preventive effect against wheat brown leaf rust; type: in vivo; settings: 216 h, test solution A 500 ppm, 1 + 8 days
Procedure: as §1, with “Norin-61-go)” for “Haruyutaka)”, “spore” for “conidium”, “Puccinia recondita” for “Phaeosphaeria nodorum synonym: Septoria nodorum)”, “1 day.” for “2 days.”, “8” for “6”

Meloidogyne incognita = test: Preventive effect on Meloidogyne incognita (garden balsam seedlings, root knot); type: in vivo; settings: 504 h, test solution B 100 ppm, 1 ml per seedling, 3 weeks, read-out: efficacy (damage degree, root knot, relative to non-treated plot)
Procedure: Compounds of the present invention were dissolved in dimethylsulfoxide to prepare 1% solutions. Then, distilled water was added to dilute the solutions to the predetermined concentration (100 ppm), and the obtained solutions were used in the following Test Examples 8 to 12. 1 ml per seedling of test solutions B of the compounds of the present invention were treated to the bases of garden balsam seedlings (about 2 weeks after budding) planted in a cell tray of which each cell was filled with 10 g of soil. 1 Hour after the application, 1 ml per cell of water containing Meloidogyne incognita 2 L larvae (100 2 L larvae/1 ml) was applied to the bases. The tray was placed in a greenhouse for 3 weeks, and the root knot level formed on the root was determined in accordance with the following damage index and the damage degree to calculate the efficacy (%) relative to the non-treated plot in accordance with the following formula. <Damage Index> 0: No knot observed. 1: Knot observed on a part of the root system. 2: Knot observed on the entire root system. 3: Large knot observed. 4: Large knot observed on the entire root system. [Damage degree]=[Σ(damage index×number of seedlings at each index)/(4×number of seedlings investigated)]×100 Efficacy(%)=[1−(damage degree in treated plot/damage degree in non-treated plot)]×100

| Structure (SMILES) | pest or weed control at 100 µg/mL (Meloidogyne incognita) [%] | melting point [°C] | further results |
| --- | --- | --- | --- |
| CON=C(CNC(=O)c1ccccc1C(F)(F)F)c1ncc(OC)cc1Cl [2-083, N-[2-(3-chloro-5-methoxypyridin-2-yl)-2-(methoxyimino)ethyl]-2-(trifluoromethyl)benzamide] |  |  | pest or weed control at 500 µg/mL (Botrytis cinerea): ≥ 70% |
| CC(C)O/N=C(\c1ncc(Cl)cc1Cl)[C@H](C)NC(=O)c1ccccc1C(F)(F)F [Compound No. 2-132, (S)—N-[2-(3,5-dichloropyridin-2-yl)-2-(Z)-(isopropoxyimino)-1-methylethyl]-2-(trifluoromethyl)benzamide] |  |  | pest or weed control at 500 µg/mL [1]: ≥ 70% |
| CC(C)(C)ON=C(CNC(=O)c1ccccc1C(F)(F)F)c1ncc(Cl)cc1Cl [2-139, N-[2-(3,5-dichloropyridin-2-yl)-2-(tert-butoxyimino)ethyl]-2-(trifluoromethyl)benzamide] |  |  | pest or weed control at 500 µg/mL [1]: ≥ 70% |
| CC(C)ON=C(CNC(=O)c1ccccc1C(F)(F)F)c1ncc(Cl)cc1Cl [Compound No. 2-005, N-[2-(3,5-dichloropyridin-2-yl)-2-(isopropoxyimino)ethyl]-2-(trifluoromethyl)benzamide] |  |  | pest or weed control at 500 µg/mL (Puccinia recondita): ≥ 70% |
| CC(C)ON=C(CNC(=O)c1ccccc1C(F)(F)F)c1ncc(Br)cc1Cl [Compound No. 2-181, N-[2-(5-bromo-3-chloropyridin-2-yl)-2-(isopropoxyimino)ethyl]-2-(trifluoromethyl)benzamide] | ≥ 50 |  | pest or weed control at 500 µg/mL [1]: ≥ 70% |
| CCC(C)ON=C(CNC(=O)c1ccccc1C(F)(F)F)c1ncc(Cl)cc1Cl (stereo not drawn) [Compound No. 2-009, N-[2-(3,5-dichloropyridin-2-yl)-2-(sec-butoxyimino)ethyl]-2-(trifluoromethyl)benzamide] | ≥ 50 |  |  |
| CC(C)O/N=C(\CNC(=O)c1ccccc1C(F)(F)F)c1ncc(Cl)cc1Cl [Compound No. 2-239, (E)-N-[2-(3,5-dichloropyridin-2-yl)-2-(isopropoxyimino)ethyl]-2-(trifluoromethyl)benzamide] |  | 54 to 57 |  |
| O=C(NC/C(=N/OCC1CC1)c1ncc(C(F)(F)F)cc1Cl)c1ccccc1C(F)(F)F [Compound No. 2-024, (Z)—N-[2-[3-chloro-5-(trifluoromethyl)pyridin-2-yl]-2-(cyclopropylmethoxyimino)ethyl]-2-(trifluoromethyl)benzamide] | ≥ 50 | 73 to 74 |  |
| CCC(C)O/N=C(/CNC(=O)c1ccccc1C(F)(F)F)c1ncc(Cl)cc1Cl (stereo not drawn) [2-136, (Z)—N-[2-(3,5-dichloropyridin-2-yl)-2-(sec-butoxyimino)ethyl]-2-(trifluoromethyl)benzamide] |  | 68 to 70 | pest or weed control at 500 µg/mL (Puccinia recondita): ≥ 70% |
| CC(ON=C(CNC(=O)c1ccccc1C(F)(F)F)c1ncc(Cl)cc1Cl)c1ccc(F)cc1 (stereo not drawn) [Compound No. 2-173, N-[2-(3,5-dichloropyridin-2-yl)-2-[1-(4-fluorophenyl)ethoxyimino]ethyl]-2-(trifluoromethyl)benzamide] | ≥ 50 |  |  |
| CC(O/N=C(/CNC(=O)c1ccccc1C(F)(F)F)c1ncc(Cl)cc1Cl)c1ccc(F)cc1 (stereo not drawn) [Compound No. 2-174, (Z)—N-[2-(3,5-dichloropyridin-2-yl)-2-[1-(4-fluorophenyl)ethoxyimino]ethyl]-2-(trifluoromethyl)benzamide] | ≥ 50 |  | pest or weed control at 500 µg/mL (Puccinia recondita): ≥ 70% |
| CC(C)ON=C(CNC(=O)c1ccccc1C(F)(F)F)c1ncc(C#CC(C)(C)C)cc1Cl [Compound No. 2-248, N-[2-[3-chloro-5-(3,3-dimethyl-1-butynyl)pyridin-2-yl]-2-(isopropoxyimino)ethyl]-2-(trifluoromethyl)benzamide] |  |  | pest or weed control at 500 µg/mL (Puccinia recondita): ≥ 70% |
| CC(C)O/N=C(/CNC(=O)c1ccccc1C(F)(F)F)c1ncc(Cl)cc1Cl [Compound No. 2-128, (Z)—N-[2-(3,5-dichloropyridin-2-yl)-2-(isopropoxyimino)ethyl]-2-(trifluoromethyl)benzamide] | ≥ 50 | 107 to 108 |  |
| O=C(NC/C(=N\OCC1CC1)c1ncc(C(F)(F)F)cc1Cl)c1ccccc1C(F)(F)F [Compound No. 2-023, (E)-N-[2-[3-chloro-5-(trifluoromethyl)pyridin-2-yl]-2-(cyclopropylmethoxyimino)ethyl]-2-(trifluoromethyl)benzamide] |  | 98 to 101 |  |
| CON=C(CNC(=O)c1ccccc1C(F)(F)F)c1ncc(OCC(F)(F)F)cc1Cl [Compound No. 2-223, N-[2-[3-chloro-5-(2,2,2-trifluoroethoxy)pyridin-2-yl]-2-(methoxyimino)ethyl]-2-(trifluoromethyl)benzamide] |  |  | pest or weed control at 500 µg/mL (Botrytis cinerea): ≥ 70% |
| CCON=C(CNC(=O)c1cn(C)nc1C(F)F)c1ncc(Cl)cc1Cl [Compound No. 17-004, N-[2-(3,5-dichloropyridin-2-yl)-2-(ethoxyimino)ethyl]-3-difluoromethyl-1-methyl-1H-pyrazole-4-carboxamide] |  |  | pest or weed control at 500 µg/mL [1]: ≥ 70% |
| CC(C)O/N=C(\CNC(=O)c1ccccc1C(F)(F)F)c1ncc(C(F)(F)F)cc1Cl [Compound No. 2-019, (E)-N-[2-[3-chloro-5-(trifluoromethyl)pyridin-2-yl]-2-(isopropoxyimino)ethyl]-2-(trifluoromethyl)benzamide] |  | 81 to 83 |  |
| CO/N=C(/CNC(=O)c1ccccc1C(F)(F)F)c1ncc(Br)cc1Cl [Compound No. 2-216, (Z)—N-[2-(5-bromo-3-chloropyridin-2-yl)-2-(methoxyimino)ethyl]-2-(trifluoromethyl)benzamide] | ≥ 50 | 85 to 86 | pest or weed control at 500 µg/mL [1]: ≥ 70% |
| O=C(NC/C(=N/OCC(F)(F)F)c1ncc(Cl)cc1Cl)c1ccccc1C(F)(F)F [2-212, (Z)—N-[2-(3,5-dichloropyridin-2-yl)-2-(2,2,2-trifluoroethoxyimino)ethyl]-2-(trifluoromethyl)benzamide] | ≥ 50 | 100 to 102 |  |
| CO/N=C(\CNC(=O)c1ccccc1C(F)(F)F)c1ccc(Cl)cc1Cl [Compound No. 1-004, (Z)—N-[2-(2,4-dichlorophenyl)-2-(methoxyimino)ethyl]-2-(trifluoromethyl)benzamide] |  | 146 to 148 |  |
| CON=C(CN(C(=O)c1ccccc1C(F)(F)F)C1CC1)c1ncc(Cl)cc1Cl [4-007] |  | 75 to 77 |  |
| CCO/N=C(/CNC(=O)c1ccccc1C(F)(F)F)c1ncc(C(F)(F)F)cc1Cl [Compound No. 2-185, (Z)—N-[2-[3-chloro-5-(trifluoromethyl)pyridin-2-yl]-2-(ethoxyimino)ethyl]-2-(trifluoromethyl)benzamide] |  | 60 to 62 |  |
